Data on two compounds can be found in BindingDB's records for doi:10.1021/acs.jmedchem.7b00843 (Wuxi Apptec, 2017).

This assay is described as follows: Inhibition of DLK in CD-1 mouse DRG neuron assessed as axonal protection pre-incubated for 2 hrs before NGF deprivation for 16 to 20 hrs by Campenot chamber based fluorescence assay.

Usually EC50 stands for the midpoint of the concentration-response curve. Regarding `Nc1ncc(-c2cc([C@H]3[C@@H]4CN(C5COC5)C[C@@H]43)n(CC3CC3)n2)cc1C(F)(F)F`, the EC50 came out at 457 nM.
The result for `CC(C)n1nc(-c2cnc(N)c(OC(F)(F)F)c2)cc1[C@H]1[C@@H]2CN(C3COC3)C[C@@H]21` reads 574 nM.
